Test system: 22RV1-FOLH1-oe cells
Assay: In vitro cell uptake of 68Ga complexes over time in 22RV1-FOLH1-oe cells
Format: cell-based
Details: for uptake-time profile (course of cellular uptake with prolonged incubation time): 37 KBq, 37° C., 15-120 minutes
Procedure: (§1) […] A 500 μL aliquot was added to each well of six 12-well plates. Each group of wells was treated with 37 KBq of [^68Ga]Ga-AAZTA-NI-PSMA, [^68Ga]Ga-AAZTA-NI-PSMA-11, and [^68Ga]Ga-HBED-CC-PSMA-11 solution. Incubation proceeded at 37° C. At 15, 30, 60, 90, and 120 minutes, uptake was terminated with PBS. Cells were lysed with 1 M NaOH, and lysates were absorbed onto filter paper for radioactivity measurement in plastic tubes. Blocking was performed at 60 minutes using excess unlabeled PSMA-11. After incubation, uptake was terminated with PBS, cells were lysed with 1 M NaOH, and lysates were absorbed onto filter paper for radioactivity measurement in plastic tubes.
(§2) 22RV1-FOLH1-oe cells were suspended at a density of 1.5×10^5 cells/mL. A 500 μL aliquot was added to each well of six 12-well plates. Each group of wells was treated with 37 KBq of [^68Ga]Ga-AAZTA-NI-PSMA, [^68Ga]Ga-DOTA-NI-PSMA, [^68Ga]Ga-HBED-CC-NI-PSMA, and [^68Ga]Ga-HBED-CC-PSMA-11 solution. Incubation proceeded at 37° C. At 15, 30, 60, 90, and 120 minutes, uptake was terminated with PBS. Cells were lysed with 1 M NaOH, and lysates were absorbed onto filter paper for radioactivity measurement in plastic tubes. Blocking was performed at 60 minutes using excess unlabeled PSMA-11. After incubation, uptake was terminated with PBS, cells were lysed with 1 M NaOH, and lysates were absorbed onto filter paper for radioactivity measurement in plastic tubes.
as §1, with “three” for “six”, “[^68Ga]Ga-AAZTA-NI-PSMA-093” for “[^68Ga]Ga-AAZTA-NI-PSMA, [^68Ga]Ga-AAZTA-NI-PSMA-11,”
as §2, with “2×10^5” for “1.5×10^5”, “the following solutions: [^68Ga]Ga-HBED-CC-PSMA-11, [^68Ga]Ga-NI-HBED-CC-PSMA-11, [^68Ga]Ga-HBED-CC-PSMA-093,” for “[^68Ga]Ga-AAZTA-NI-PSMA, [^68Ga]Ga-DOTA-NI-PSMA, [^68Ga]Ga-HBED-CC-NI-PSMA,”, “[^68Ga]Ga-NI-HBED-CC-PSMA-093.” for “[^68Ga]Ga-HBED-CC-PSMA-11 solution.”

SMILES: O=C([O-])CN(CCN(CC(=O)[O-])Cc1cc(CCC(=O)NCCCCCC(=O)NCCCC[C@H](NC(=O)N[C@@H](CCC(=O)O)C(=O)O)C(=O)O)ccc1[O-])Cc1cc(CCC(=O)O)ccc1[O-].[68Ga+3].[OH3+] [[^68Ga]Ga-HBED-CC-PSMA-11]
- uptake-time profile (course of cellular uptake with prolonged incubation time) (Application Embodiment 1, 1×10^5 cells/mL, n=3 (FIG. 12)): initially increased and subsequently decreased
- cellular uptake compared with the other radioactive metal complexes (Application Embodiment 1, versus [^68Ga]Ga-AAZTA-NI-PSMA and [^68Ga]Ga-AAZTA-NI-PSMA-11, all time points): significantly higher
- uptake-time profile (course of cellular uptake with prolonged incubation time) (Application Embodiment 2, 1.5×10^5 cells/mL, n=3 (FIG. 14)): initially increased and subsequently decreased
- uptake-time profile (course of cellular uptake with prolonged incubation time) (Application Embodiment 3, 1×10^5 cells/mL, n=3 (FIG. 16)): initially increased and subsequently decreased
- uptake-time profile (course of cellular uptake with prolonged incubation time) (Application Embodiment 4, 2×10^5 cells/mL, n=3 (FIG. 18)): gradually increased

Reference: patent publication US20250367332A1, “PSMA-TARGETED RADIOACTIVE METAL COMPLEX CONTAINING NITROAROMATIC HETEROCYCLIC GROUP AND PREPARATION METHOD” (BEIJING NORMAL UNIVERSITY, priority 2023, published 2025)
